Experiment: xn = mol fraction of the nth substance listed, in the solute-free solvent

CC1=NNC(=O)N(N=Cc2cccnc2)C1 + C1COCCO1 + CC(C)O
solubility (g/100 g solution)
Conditions	288.15 K	293.15 K	298.15 K	303.15 K	308.15 K	313.15 K	318.15 K
x2 = 0.1457	0.106	0.125	0.147	0.169	0.197	0.227	0.261
x2 = 0.3126	0.11	0.127	0.149	0.173	0.2	0.229	0.263
x2 = 0.5057	0.113	0.132	0.154	0.176	0.202	0.233	0.268
x2 = 0.7318	0.116	0.135	0.156	0.179	0.206	0.235	0.27

Nc1cc(-c2ccncc2)c[nH]c1=O + CO + O
solubility (g/100 g solution)
Conditions	278.15 K	283.15 K	288.15 K	293.15 K	298.15 K	303.15 K	308.15 K	313.15 K	318.15 K	323.15 K
x2 = 0.05881	0.00167	0.00195	0.00231	0.00269	0.00313	0.00358	0.00409	0.00463	0.00525	0.00594
x2 = 0.1233	0.00324	0.00377	0.00445	0.00515	0.00595	0.00677	0.00768	0.00865	0.00977	0.011
x2 = 0.1942	0.00545	0.00626	0.00731	0.00841	0.00969	0.011	0.0124	0.0141	0.0159	0.0179
x2 = 0.2727	0.00818	0.00949	0.0111	0.0129	0.0147	0.0167	0.0189	0.0211	0.0237	0.0266
x2 = 0.3599	0.0113	0.013	0.0152	0.0174	0.0201	0.0228	0.0258	0.029	0.0326	0.0367
x2 = 0.4576	0.0147	0.0171	0.0201	0.0232	0.0266	0.0302	0.034	0.0381	0.0428	0.048
x2 = 0.5675	0.0183	0.0214	0.0246	0.029	0.0331	0.0375	0.0424	0.0475	0.0536	0.0605
x2 = 0.6923	0.0222	0.026	0.0305	0.0355	0.0408	0.0463	0.0524	0.0586	0.0662	0.0743
x2 = 0.835	0.0262	0.0305	0.0355	0.0412	0.0475	0.0545	0.0616	0.0694	0.0789	0.0893

Reference: the CheMixHub drug solubility set
